Entries after “also recorded” stand apart in the source; their conditions may differ.
Assays:
[1] = tested on: IL-10, IL-6, MIP-2, IL-12; experiment: Cytokine levels (ELISA) in plasma and peritoneal lavage fluid after CLP; assay type: in vivo, mouse
Protocol: The effect of pharmacological inactivation of A2A receptors in mice subjected to CLP was evaluated using CD-1 mice in a similar fashion to that described for the A2A receptor KO or WT mice. In this set of experiments, the mice were injected immediately before or 2 hours after the operation and every 12 hours thereafter with 4-(2-[7-amino-2-(2-furyl[1,2,4]-triazolo[2,3-a[1,3,5]triazin-5-yl-aminoethyl)phenol (“ZM241385”) (15 mg/kg, s.c.) or its vehicle (DMSO). Blood samples were obtained aseptically by cardiac puncture using heparinized syringes after opening the chest and placed on ice into heparinized Eppendorf tubes until further processing for hematological and bacteriological analysis. Aliquots of whole blood were analyzed for hematology by flow cytometry (CELL-DYN 3200 System, Abbott Laboratories) in a centralized facility. After serial dilutions for bacteriological analysis were made (see below), the blood was centrifuged at 2000×g for ten minutes and the recovered plasma stored at −70° C. until further use. For peritoneal lavage, the abdominal skin was cleansed with 70% ethanol and the abdominal wall exposed by opening the skin. Four milliliters of sterile physiological saline was then installed into the peritoneal cavity via an 18-gauge needle. The abdomen was massaged gently for 1 minute while keeping the tip of the needle in the peritoneum, after which procedure peritoneal fluid was recovered through the needle. Recovered peritoneal lavage fluid was placed on ice until processed for bacteriological examination. After serially diluting the peritoneal lavage fluid to determine CFU numbers (see below), the peritoneal lavage fluid was centrifuged at 5000×g for ten minutes and the supernatant stored at −70° C. until further analysis. Samples from spleen, thymus, lung, kidneys, and liver were excised and either immediately frozen in liquid nitrogen or placed in 10% paraformaldehyde for subsequent histological analysis. Snap-frozen tissue samples were transferred to a −70° C. refrigerator until analyzed for gene expression and apoptotic markers. Concentrations of IL-10, IL-6, IL-12 p70, TNF-α and MIP-2, in plasma or peritoneal lavage fluid were determined using commercially available ELISA kits (R&D Systems) and according to the manufacturer's instructions. The lower detection limit for all these cytokines was 10 pg/ml. Plasma concentrations of AST, ALT, and BUN were analyzed using standard laboratory procedures. Survival curves were analyzed using the two-tailed Fisher's exact test. Two-tailed t testing was used to compare cytokine concentrations, CFUs, and other laboratory parameters. Statistical significance was assigned to p values smaller than 0.05.

[2] = tested on: mice subjected to CLP; experiment: Survival after cecal ligation and puncture (CLP)-induced sepsis; assay type: in vivo, mouse; details: CD-1 mice
Source text: For pharmacological studies with the selective A2A receptor antagonist 4-(2-[7-amino-2-(2-furyl)[1,2,4]triazolo[2,3-a][1,3,5]triazin-5-ylamino]ethyl)phenol(4-(2-[7-amino-2-(2-furyl[1,2,4]-triazolo[2,3-a[1,3,5]triazin-5-yl-aminoethyl)phenol (“ZM241385”); Tocris Cookson Inc.), male CD-1 mice were used that were purchased from Charles River Laboratories.
Polymicrobial sepsis was induced by subjecting mice to CLP, as we have described previously, with some modifications. Six-to-eight-week-old male A2a receptor KO or WT mice were anesthetized with Nembutal (80 mg/kg), given i.p. Under aseptic conditions, a 2-cm midline laparotomy was performed to allow exposure of the cecum with adjoining intestine. Approximately two-thirds of the cecum was tightly ligated with a 3.0 silk suture, and the ligated part of the cecum perforated twice (through and through) with a 20-gauge needle (Beckton Dickinson). The cecum was then gently squeezed to extrude a small amount of feces from the perforation sites. The cecum was then returned to the peritoneal cavity and the laparotomy closed in two layers with 4.0 silk sutures. Sham-operated animals underwent the same procedure without ligation or puncture of the cecum. The mice were resuscitated with 1 ml of physiological saline injected s.c., and returned to their cages with free access to food and water. One group of mice was monitored daily and survival recorded for 10 days. Another group of mice was re-anesthetized with Nembutal (80 mg/kg; i.p.) 16 or 48 hours after the operation, and blood, peritoneal lavage fluid, and various organs were harvested as described below.
The effect of pharmacological inactivation of A2A receptors in mice subjected to CLP was evaluated using CD-1 mice in a similar fashion to that described for the A2A receptor KO or WT mice. […]
Survival curves were analyzed using the two-tailed Fisher's exact test. […]

[3] = 15 mg/kg s.c. twice daily, 16 hours after CLP, FIG. 6C
[4] = 15 mg/kg s.c. twice daily, 16 hours after CLP, FIG. 6D
[5] = 15 mg/kg s.c. twice daily, 16 hours after CLP, FIG. 6E
[6] = mouse CLP sepsis model, FIG. 10, matrix not stated

Structure (SMILES): Nc1nc(NCCc2ccc(O)cc2)nc2nc(-c3ccco3)nn12 [ZM241385]
- IL-10 level in peritoneal lavage fluid vs vehicle-treated mice [1, 3]: decreased
- IL-10 level in plasma vs vehicle-treated mice [1, 3]: decreased
- IL-6 concentration in plasma vs vehicle-treated mice [1, 4]: comparable
- IL-6 level in peritoneal fluid vs vehicle-treated mice [1, 4]: lower; also recorded: attenuated
- MIP-2 level in peritoneal lavage fluid vs vehicle-treated mice [1, 5]: decreased
- MIP-2 level in plasma vs vehicle-treated mice [1, 5]: decreased
- IL-10 levels vs vehicle treated mice [1, 6]: Decreased levels
- IL-12 concentrations vs vehicle treated mice [1, 6]: comparable
- MIP-2 levels vs vehicle treated mice [1, 6]: Decreased levels
- survival after CLP vs vehicle-treated mice, delayed administration ([2]; 15 mg/kg s.c. twice daily starting 2 hours after resuscitation, survival monitored 5 days, FIG. 6B, 15 mg/kg): still protective; also recorded: protects mice from death
- survival after CLP vs vehicle-treated mice ([2]; 15 mg/kg s.c. twice daily starting at time of resuscitation (time 0), survival monitored 5 days, FIG. 6A, 15 mg/kg): significantly improved survival; also recorded: protects mice from death
- survival after CLP ([2]; survival recorded for 2 days, FIG. 9): improved survival
